Measurements published in patent publication US20110104175A1, “METHODS OF TREATMENT FOR PULMONARY FIBROSIS” (CEDARS-SINAI MEDICAL CENTER, priority 2008, published 2011).
Read-outs that look alike come from different tables or passages of the source. Peptide text beside a SMILES is read from it.

Columns and labels:
[1] = system: wild-type, N-KO and C-KO mice
Excerpt: (§1) Preparation of Mice. We generated mice expressing site-inactivated ACE by homologous recombination. N-KO mice express a full length ACE protein where the N-terminal catalytic site was inactivated by mutating two zinc-binding histidines (^395H and ^399H) to lysines. In the C-KO strain, ^993H and ^997H, which are responsible for the zinc binding and catalytic activity of the C-terminal enzymatic site, were mutated to lysine. The generation of these two strains of mice has been described in detail prior. Both N-KO and C-KO mice are a genetic mix of strains 129 and C57BL/6. Age and gender-matched littermate controls were used in all studies. All mice used in this study have only one functional renin gene. Drug Administration. The administration of bleomycin was performed under anesthesia by intratracheal instillation as previously described. A small skin incision was made to expose the trachea. A 25-gauge needle was inserted directly into the trachea without reaching the bifurcation and the animals were maintained on the surgical board with a 30 degree angle to ensure a correct diffusion of the drug or saline to both lungs. Bleomycin was solubilized in water, aliquoted, lyophilized and kept at −20 C. For each experiment a fresh aliquot was dissolved in saline and, unless otherwise indicated, administered in a dose of 1 mg/kg. The concentration of the solution was adapted to inject 2 μl/g, The skin was then sutured and the animal monitored until complete recovery.
(§2) Absorbance was measured at 550 nm.

wild-type and N-KO mice [2] = conditions: for cell content of the bronchoalveolar lavage: intratracheal bleomycin without S17092, two weeks
Excerpt: as §1, §2

patients = conditions: cited from earlier work
wild-type and N-KO mice [3] = test: Survival analysis after intratracheal bleomycin
Excerpt: as §1, §2

wild-type and N-KO mice [4] = test: Lung histology 14 days after bleomycin; assay type: in vivo, mouse; conditions: bleomycin 0.5 mg/kg
Procedure: A group of 8 N-KO and 8 wild-type control mice received 0.5 mg/kg body weight of bleomycin. These animals were sacrificed 14 days later. Under deep anesthesia, the thoracic cage was opened to expose the lung. A 25 G needle was secured in the trachea and 0.8 to 1 ml of 10% buffered formalin was injected until the lungs were inflated. The trachea was then ligatured. The whole lung was carefully collected in one block with the heart and immersed in formalin overnight. The tissue was then dehydrated and paraffin embedded using standard techniques. Five micron coronal sections were obtained from the central part of the lung and were stained with either Masson's trichrome or with hematoxylin and eosin. For each animal, both right and left lobes of the lung were examined by a pathologist blinded to the genotype of the mice.

[5] = system: wild-type, N-KO and C-KO mice; test: Weight loss after intratracheal instillation of bleomycin
Excerpt: as §1
Weight loss is a typical feature secondary to bleomycin administration and is associated with the severity of the pulmonary lesions.

[6] = mouse; cited from earlier work
[7] = system: ACE N-domain and C-terminal domain; conditions: N-domain versus C-terminal domain; cited from earlier work
[8] = cited from earlier work
rats = conditions: model of heart infarction; cited from earlier work

## bleomycin
[1]; N-KO mice, two weeks after intratracheal bleomycin
  pulmonary collagen levels (hydroxyproline): did not increase pulmonary collagen levels
[1]; wild-type and C-KO mice, two weeks after intratracheal bleomycin
  hydroxyproline content of lungs: significantly increased the hydroxyproline content
wild-type and N-KO mice [2]; N-KO mice
  cell content of the bronchoalveolar lavage: 12.73±1.58 10^5 cells per lung
wild-type and N-KO mice [2]; wild-type mice
  cell content of the bronchoalveolar lavage: 24.21±3.10 10^5 cells per lung
patients; of the patients who develop lung injury
  patients with lung injury who die of lung injury: 1-3%
patients; patients treated with bleomycin, meta-analysis
  patients developing sufficient lung injury to necessitate cessation of treatment: 10 to 50%
wild-type and N-KO mice [3]; N-KO mice, bleomycin 5 mg/kg body weight intratracheal
  long-term survival: 4 of 15
wild-type and N-KO mice [3]; wild-type mice, bleomycin 5 mg/kg body weight intratracheal
  mice surviving 12 days after drug administration: 1 of 15
wild-type and N-KO mice [3]; wild-type or N-KO mice, bleomycin 1 mg/kg body weight intratracheal
  deaths: virtually no deaths
wild-type and N-KO mice [4]; N-KO mice
  lung histology (inflammation, collagen stripes) versus wild-type: much reduced
wild-type and N-KO mice [4]; wild-type mice
  lung histology: extensive lung injury
[5]; C-KO mice
  weight loss, C-KO mice versus wild-type controls: no significant difference in weight loss
[5]; N-KO mice
  weight loss: 1.60±1.23%
[5]; wild-type animals
  weight loss: 9.26±2.52%

## Ac-Asp-(L)Pheψ(PO2—CH2)(L)Ala-Ala-NH2 (Ac-DFAA-NH2; also: Phe2-Ala3 peptide bond replaced by phosphinic ψ(PO2-CH2) bond) [RXP 407]
[6]
  stability in vivo: stable in vivo
[7]
  dissociation constant for the ACE N-domain relative to the C-terminal domain: three orders of magnitude lower
[8]; RXP 407 combined with Ac-SDKP infusion
  elevation of plasma Ac-SDKP: 16 fold
[8]; mouse, RXP 407 alone
  increase of plasma level of Ac-SDKP: ≤ 6 fold

## CC(=O)N[C@@H](CO)C(=O)N[C@@H](CC(=O)O)C(=O)N[C@@H](CCCCN)C(=O)N1CCC[C@H]1C(=O)O [AcSDKP, N-acetyl-seryl-aspartyl-lysyl-proline] (Ac-SDKP-OH)
[1]; wild-type mice, AcSDKP 1 mg/kg/day by osmotic minipump, bleomycin
  collagen deposition, as assessed by hydroxyproline: did not significantly reduce the collagen deposition
wild-type and N-KO mice [2]; wild-type mice, AcSDKP 1 mg/kg/day by osmotic minipump, bleomycin on day 2, two weeks later, versus saline-filled minipump
  lavage cellularity: substantially reduced lavage cellularity
rats
  collagen deposition: prevented and even reversed collagen deposition
